The values that follow come from patent US11426367B2, “Methods of treating substance abuse” (Perception Neuroscience, Inc., priority 2018, dated 2022).

Holding throughout (assay type): in vivo
One assay has as its system DEX-treated mice. The assay is described as follows: Locomotion test (LMT), neonatal dexamethasone exposure model. The note with it: juvenile DEX-treated mice, 10 mg/kg i.p., day after injection. As for the experimental part:
A new animal model of depression was prepared by exposing mice neonatally to dexamethasone (hereinafter abbreviated as DEX). […] The mouse model was prepared and reported only recently by the inventors of the present application and their collaborators (Non Patent Literature 18). […] Further, alterations were found in levels of amino acids (glutamate, glutamine, glycine, D-serine, and L-serine) in mouse brains after the neonatal DEX exposure (Non Patent Literature 18). Those amino acids are known to be associated with NMDA receptor mediated neurotransmission. Thus, it is conceivable that alterations in glutamatergic transmission via the NMDA receptor after the neonatal DEX exposure may be involved in the depression-like behavior in the juvenile mice and the adult mice (Non Patent Literature 18). […]
The antidepressant effects of the agent were investigated for juvenile mice by behavioral tests such as the TST, the PST, the LMT, and a 1% sucrose preference test (SPT) (FIG. 2A). […] The immobility time of each mouse was recorded for 10 minutes. […] The immobility time was calculated as a value obtained by subtracting active time from total time, using the analysis software of the apparatus. Cumulative immobility time was recorded over 6 minutes during a test period. […] The locomotor activity of the mice was counted with SCANET MV-40, and the cumulative exercise of the mice was recorded for 60 minutes. […]

For assay [1], the system named is social defeat stress mice. Kind of assay: Tail suspension test (TST), social defeat stress model. The note with it: 10 mg/kg i.p. As to the method:
(§1) A social defeat stress model of depression was prepared by bringing C57/B6 male mice into contact with ICR male mice (large aggressive mice) for 10 consecutive days to apply a stress called a “social defeat stress” in accordance with the previous report (Non Patent Literature 19). […] Specifically, an increase in immobility time was found in each of a tail suspension test (TST) and a forced swimming test (FST).
(§2) The preparation of the animal model of depression and the administration of the agent were specifically performed as described below (FIG. 3A). Male C57/B6 mice (7-week-old, Japan SLC, Inc., Hamamatsu, Japan) and ICR mice (9-week-old, Japan SLC, Inc., Hamamatsu, Japan) were used. The mice were given free access to water and feed. A social defeat stress was applied by housing one C57/B6 mouse with one ICR mouse for 10 days.
(§3) The antidepressant effects of the agent were investigated by behavioral tests such as the TST, the PST, the LMT, and a 1% sucrose preference test (SPT) (FIG. 3A). The 1% sucrose preference test (SPT) was performed on 1 day and 6 days after the injection of ketamine. Each of the TST and the PST was performed on 2 days and 7 days after the injection of ketamine. The TST was performed as described below. First, the mice were taken out from cages, and then a small piece of an adhesive tape was bonded onto a portion approximately 2 cm away from the tip of the tail of the mice. A small hole was opened in the small piece, and the mice were each fixed upside down on a hook through the small hole. The immobility time of each mouse was recorded for 10 minutes. Mice were considered immobile only when they hung passively and completely motionless. The immobility time increases in a depressive state. The PST was performed as described below. First, the mice were placed individually in a cylinder (diameter: 23 cm; height: 31 cm) containing 15 cm of water, maintained at 22 to 24 deg C. The mice were tested in an automated forced-swimming apparatus using SCANET MV-40 ([…] Co., Ltd., Toyama, Japan). The immobility time was calculated as a value obtained by subtracting active time from total time, using the analysis software of the apparatus. Cumulative immobility time was recorded over 6 minutes during a test period. The LMT was performed as described below. First, the mice were placed in experimental cages (length×width×height: 560×560×330 mm). The locomotor activity of the mice was counted with SCANET MV-40, and the cumulative exercise of the mice was recorded for 60 minutes. The cages were cleaned between testing session. The immobility time increases in a depressive state. […] A spine density was quantitatively evaluated by observation with a KEYENCE microscope (BZ-9000, Osaka, Japan).

For assay [2], the system named is social defeat stress mice. Kind of assay: 1% sucrose preference test (SPT), social defeat stress model. The note with it: 10 mg/kg i.p. As for the experimental part:
as §1, §2, §3

Consider `CN[C@]1(c2ccccc2Cl)CCCCC1=O` [S(+)-ketamine], for which, in the assay on DEX-treated mice, the “locomotion in the LMT” value is given as “no difference in locomotion”. Also, the “immobility time in the TST” value in assay [1] (2 days after injection) was “markedly reduced the immobility time”; in assay [1] (7 days after injection), “significantly reduced the immobility time”. For the same compound, the “sucrose consumption preference in the SPT” value in assay [2] (1 day after injection) is on record as “sucrose consumption preference significantly increased”; in assay [2] (6 days after injection), “significantly restored the sucrose consumption preference”.
Consider `CN[C@@]1(c2ccccc2Cl)CCCCC1=O.Cl` [R(−)-ketamine], for which the “locomotion in the LMT” value with DEX-treated mice is “no difference in locomotion”. The “immobility time in the TST” value is “markedly reduced the immobility time” in assay [1] (2 days after injection) and “significantly reduced the immobility time” in assay [1] (7 days after injection). Moreover, the “sucrose consumption preference in the SPT” value in assay [2] (1 day after injection) is given as “sucrose consumption preference significantly increased”; in assay [2] (6 days after injection), “significantly restored the sucrose consumption preference”.
